Each molecule was assayed on human polymorphonuclear cells (PMNs) (assay: In vitro PMN elastolysis assay (Example II-A)). Conditions: at 1.2 μM; mean±s.e.m.; n=3 different donors at 3.6×10^5 cells per well.
Format: cell-based
Procedure: This assay is used to determine the elastolytic potential of human polymorphonuclear cells (PMNs) and assess the proportion of degradation due to neutrophil elastase [cf. Z. W. She et al., Am. J. Respir. Cell. Mol. Biol. 9, 386-392 (1993)].
Tritiated elastin, in suspension, is coated on to a 96 well plate at 10 μg per well. Test and reference [ZD-0892 (J. Med. Chem. 40, 1876-1885, 3173-3181 (1997), WO 95/21855) and α1 protease inhibitor (α1PI)] compounds are added to the wells at the appropriate concentrations. Human PMNs are separated from peripheral venous blood of healthy donors and resuspended in culture media. The neutrophils are added to the coated wells at concentrations ranging between 1×10^6 to 1×10^5 cells per well. Porcine pancreatic elastase (1.3 μM) is used as a positive control for the assay, and α1PI (1.2 μM) is used as the positive inhibitor of neutrophil elastase. The cellular control is PMNs without compound at each appropriate cell density. The cells plus compounds are incubated in a humidified incubator at 37° C. for 4 hours. The plates are centrifuged to allow the harvest of cell supernatant only. […] The plates are dried until no liquid is visible in the wells and read in a beta counter for 3 minutes per well. […]
The compounds of this invention are evaluated for their inhibitory activity in this HNE-dependent model of neutrophil elastolysis.

Molecule | inhibition of 3H-elastin elastolysis [%]
α1PI: α1 protease inhibitor, used as the positive inhibitor of neutrophil elastase | 83.46±3.97

Same assay, conditions: mean±s.e.m.; n=2 different donors at 3.6×10^5 cells per well

Molecule | IC50 [nM]
COc1ccc(C(=O)N[C@H](C(=O)N2CCC[C@H]2C(=O)N[C@H](C(=O)C(F)(F)F)C(C)C)C(C)C)cc1 [ZD-0892] | 45.5 ± 7.75

Each molecule was assayed against T1, human neutrophil elastase (HNE) (Homo sapiens, UniProt P08246) (assay: In vitro inhibition of HNE using a fluorogenic peptide substrate (Example I-A)). Conditions: fluorogenic peptide substrate MeOSuc-Ala-Ala-Pro-Val-AMC, 384 MTP assay format.
T1 construct: purchased SERVA Electrophoresis GmbH, Heidelberg, Germany #20927.01
T1 sequence (P08246 30-267): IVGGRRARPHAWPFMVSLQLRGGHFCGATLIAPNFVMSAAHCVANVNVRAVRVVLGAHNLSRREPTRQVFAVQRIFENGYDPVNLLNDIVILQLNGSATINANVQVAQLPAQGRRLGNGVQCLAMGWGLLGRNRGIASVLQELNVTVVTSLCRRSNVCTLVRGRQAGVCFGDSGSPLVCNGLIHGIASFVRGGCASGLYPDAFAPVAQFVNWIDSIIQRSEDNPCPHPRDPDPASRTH
Format: biochemical
Procedure: I. In vitro Enzyme Assays of Human Neutrophil Elastase (HNE)
The test solution is prepared by mixing 10 μl of test compound dilution, 20 μl of HNE enzyme dilution (final concentration 8-0.4 μU/ml, routinely 2.1 μU/ml) and 20 μl of substrate dilution (final concentration 1 mM-1 μM, routinely 20 μM), respectively. The solution is incubated for 0-2 hrs at 37° C. (routinely one hour). The fluorescence of the liberated AMC due to the enzymatic reaction is measured at 37° C. (TECAN spectra fluor plus plate reader). […] IC50 values are determined by RFU-versus-[I] plots. Km and Km(app.) values are determined by Lineweaver-Burk plots and converted to Ki values by Dixon plots.

Molecule | IC50 [nM]
CC1=C(CO)C(c2ccc(C#N)cc2)NC(=O)N1c1cccc(C(F)(F)F)c1 (centres unmarked) [Example 1, 4-{5-(Hydroxymethyl)-6-methyl-2-oxo-1-[3-(trifluoromethyl)phenyl]-1,2,3,4-tetrahydropyrimidin-4-yl}benzonitrile] | 20
CC1=C(C(=O)NC2CC2)C(c2ccc(C#N)cc2)NC(=O)N1c1cccc(C(F)(F)F)c1 (centres unmarked) [Example 6, 4-(4-Cyanophenyl)-N-cyclopropyl-6-methyl-2-oxo-1-[3-(trifluoromethyl)phenyl]-1,2,3,4-tetrahydropyrimidine-5-carboxamide] | 200
CC1=C(C(=O)NCc2ccccc2F)C(c2ccc(C#N)cc2)NC(=O)N1c1cccc(C(F)(F)F)c1 (centres unmarked) [Example 14] | 1000
CC1=C(C(=O)C2CCCCC2)C(c2ccc(C#N)cc2)NC(=O)N1c1cccc(C(F)(F)F)c1 (centres unmarked) [Example 21, 4-{5-(Cyclohexylcarbonyl)-6-methyl-2-oxo-1-[3-(trifluoromethyl)phenyl]-1,2,3,4-tetrahydropyrimidin-4-yl}benzonitrile] | 130
COC(=O)c1coc(CN2C(=O)N(c3cccc(C(F)(F)F)c3)C(C)=C(C(=O)C3CC3)C2c2ccc(C#N)cc2)n1 (centres unmarked) [Example 43, Methyl 2-{[6-(4-cyanophenyl)-5-(cyclopropylcarbonyl)-4-methyl-2-oxo-3-[3-(trifluoromethyl)phenyl]-3,6-dihydropyrimidin-1(2H)-yl]methyl}-1,3-oxazole-4-carboxylate] | 23
CC1=C(C(=O)C2CC2)C(c2ccc(C#N)cc2)N(CC(=O)NS(=O)(=O)CC(F)(F)F)C(=O)N1c1cccc(C(F)(F)F)c1 (centres unmarked) [Example 45, 2-[6-(4-Cyanophenyl)-5-(cyclopropylcarbonyl)-4-methyl-2-oxo-3-[3-(trifluoromethyl)phenyl]-3,6-dihydropyrimidin-1(2H)-yl]-N-[(2,2,2-trifluoroethyl)sulfonyl]acetamide] | 20
CC1=C(C(=O)NS(=O)(=O)CC(F)(F)F)C(c2ccc(C#N)cc2)N(CC(=O)OC(C)(C)C)C(=O)N1c1cccc(C(F)(F)F)c1 (centres unmarked) [Example 69] | 50
CC1=C(C(=O)NS(=O)(=O)c2ccc(C#N)cc2)C(c2ccc(C#N)cc2)NC(=O)N1c1cccc(C(F)(F)F)c1 (centres unmarked) [Example 73] | 1000
CC1=C(CCC(=O)O)C(c2ccc(C#N)cc2)NC(=O)N1c1cccc(C(F)(F)F)c1 (centres unmarked) [Example 78, 3-{4-(4-Cyanophenyl)-6-methyl-2-oxo-1-[3-(trifluoromethyl)phenyl]-1,2,3,4-tetrahydropyrimidin-5-yl}propanoic acid] | 50
